Source: the NIST ThermoML archive (doi:10.1021/je800312g)
Several values for one entry are separate records, joined by “and”; a condition that tells them apart may be missing. Equal entries are not always repeated. Numbers after ± are expanded uncertainties.

Conditions: Fluid (supercritical or subcritical phases), Impulsive stimulated scattering

N [ammonia]
Conditions	speed of sound
297 K, 620000 kPa	2741 ± 12 m/s
297 K, 700000 kPa	2836 ± 12 m/s
297 K, 780000 kPa	2942 ± 12 m/s and 2932 ± 12 m/s
297 K, 880000 kPa	3023 ± 12 m/s
297 K, 970000 kPa	3113 ± 13 m/s
298 K, 370000 kPa	2376 ± 11 m/s
298 K, 740000 kPa	2903 ± 12 m/s
474 K, 1430000 kPa	3280 ± 13 m/s
476 K, 1550000 kPa	3375 ± 14 m/s
476 K, 2200000 kPa	3788 ± 15 m/s
477 K, 1090000 kPa	2954 ± 12 m/s
479 K, 2220000 kPa	3797 ± 18 m/s
678 K, 2920000 kPa	4000 ± 16 m/s
678 K, 3080000 kPa	4072 ± 16 m/s
678 K, 3140000 kPa	4103 ± 17 m/s
679 K, 1480000 kPa	3084 ± 13 m/s
679 K, 2440000 kPa	3740 ± 15 m/s
679 K, 3750000 kPa	4342 ± 17 m/s
680 K, 1350000 kPa	2982 ± 12 m/s and 2970 ± 12 m/s
